Measurements published in ChEMBL document CHEMBL4706671, “A High-Affinity Peptide Ligand Targeting Syntenin Inhibits Glioblastoma” (J Med Chem, 2021).
pKi: −log10 of the molar value. The source made the active and inactive calls. The calls are words filed in the database; no cut-off is given here. Non-standard residues stand in square brackets, D forms with d. Residues, ends and D or L forms follow the SMILES beside them. *: point of attachment. X1 = CN(C)c1ccc2c(-c3cc(C(=O)*)ccc3C(=O)[O-])c3ccc(=[N+](C)C)cc-3oc2c1; Biotin = O=C1N[C@H]2[C@H](CS[C@H]2CCCCC(=O)*)N1; Chg = N[C@H](C(=O)O)C1CCCCC1; Tle = CC(C)(C)[C@H](N)C(=O)O; AEEA = NCCOCCOCC(=O)O

Experiments:
Syntenin-1 [1] = target: T1, Syntenin-1 (Homo sapiens, UniProt O00560); assay: (§1) Inhibition of syntenin-PDZ1-2 domain (unknown origin) expressed in Escherichia coli BL21 (DE3) incubated for 5 mins by fluorescence polarization assay
T1 sequence (O00560 whole entry): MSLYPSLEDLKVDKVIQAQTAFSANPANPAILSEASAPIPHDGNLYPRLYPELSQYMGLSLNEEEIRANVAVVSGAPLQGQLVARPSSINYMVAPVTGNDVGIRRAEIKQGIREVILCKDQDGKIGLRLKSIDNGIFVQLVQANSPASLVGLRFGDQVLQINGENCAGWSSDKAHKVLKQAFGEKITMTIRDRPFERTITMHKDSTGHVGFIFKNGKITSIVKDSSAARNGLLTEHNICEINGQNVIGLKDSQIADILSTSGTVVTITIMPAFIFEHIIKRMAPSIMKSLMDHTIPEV

[2] = target: T2, Syntenin-1 (Homo sapiens) (UniProt O00560); assay: Inhibition of mCherry-labeled-syntenin expressed in human MCF7 cells co-expressing […] Q79L mutant assessed as reduction in syntenin-dependent intracellular endosomal budding at 0.1 to 10 uM incubated for 24 hrs; format: cell-based; conditions: dose 0.1-10 µM
T2 sequence (whole entry): T1 sequence (O00560 whole entry)

[3] = Stability in human plasma assessed as half life for compound degradation at 0.2 mM by UPLC analysis; format: ADME, cell-free
[4] = Stability in mouse hepatic microsomes assessed as half life for compound degradation at […] in presence of NADPH by UPLC analysis; format: ADME, Microsome; conditions: liver microsomes
[5] = target: T2, Syntenin-1 (Homo sapiens); assay: Binding affinity to syntenin-PDZ1-2 domain (unknown origin) expressed in Escherichia coli BL21 (DE3) assessed as apparent association rate constant by SPR analysis
Syntenin-1 [6] = target: T1, Syntenin-1; assay: Binding affinity to syntenin-PDZ1-2 domain (unknown origin) expressed in Escherichia coli BL21 (DE3) by SPR analysis
[7] = target: T2, Syntenin-1 (Homo sapiens); assay: Binding affinity to human syntenin-PDZ1 domain assessed as binding intensity by HTS holdup assay
[8] = target: T2, Syntenin-1 (Homo sapiens); assay: Binding affinity to syntenin-PDZ1-2 domain (unknown origin) expressed in Escherichia coli BL21 (DE3) assessed as apparent dissociation rate constant by SPR analysis
[9] = target: T2, Syntenin-1 (Homo sapiens); assay: Binding affinity to human syntenin-PDZ2 domain assessed as binding intensity by HTS holdup assay
Homo sapiens = species: Homo sapiens; assay: Selectivity index, ratio of Kd for binding affinity to syntenin2-PDZ1-2 domain (unknown origin) expressed in Escherichia coli BL21 (DE3) by SPR analysis to Kd for binding affinity to syntenin-PDZ1-2 domain (unknown origin) expressed in Escherichia coli BL21 (DE3) by SPR analysis
HEK293 = assay: Cytotoxic activity against HEK293 cells assessed as reduction in cell viability at 12.5 to 50 uM incubated for 24 hrs by Cell-titer-Glo luminescent cell viability assay; format: cell-based; conditions: human, hek293, 24 h, dose 12.5-50 µM
[10] = Drug distribution in cytoplasm of human patient-derived GBM002 cells at 10 to 30 uM incubated for 2 to 24 hrs hrs by confocal microscopy; format: ADME, subcellular; conditions: gbm, dose lower 10 µM, time lower 2 hrs, dose upper 30 µM, time upper 24 hrs
GBM [11] = assay: Antineoplastic activity against human patient-derived GBM001 cells assessed as reduction in cell viability incubated for 72 hrs by Cell-titer-Glo luminescent cell viability assay; format: functional, cell-based
GBM [12] = assay: Antineoplastic activity against human patient-derived GBM002 cells assessed as reduction in cell viability incubated for 72 hrs by Cell-titer-Glo luminescent cell viability assay; format: functional, cell-based
A2058 = assay: Antineoplastic activity against human A2058 cells assessed as reduction in cell viability incubated for 72 hrs by Cell-titer-Glo luminescent cell viability assay; format: functional, cell-based
GBM [13] = assay: Antineoplastic activity against human patient-derived GBM cells xenografted in NMRInu-F receiving GBM cells pre-treated with 50 uM compound for 24 hrs assessed as median survival time (reference value: 25 days); format: functional
MCF7 = assay: Antineoplastic activity against human MCF7 cells assessed as reduction in cell viability at 10 to 30 uM incubated for 72 hrs by Cell-titer-Glo luminescent cell viability assay; format: functional, cell-based; conditions: dose 10-30 µM
[14] = target: T2, Syntenin-1 (Homo sapiens); assay: as §1
HT-29 = assay: Antineoplastic activity against human HT-29 cells assessed as reduction in cell viability at 10 to 30 uM incubated for 72 hrs by Cell-titer-Glo luminescent cell viability assay; format: functional, cell-based; conditions: dose 10-30 µM
Astrocyte = assay: Cytotoxic activity against normal human astrocytes assessed as reduction in cell viability at 20 to 30 uM incubated for 24 hrs by Cell-titer-Glo luminescent cell viability assay; format: cell-based; conditions: dose 20-30 µM

Q: With H-NAIYSLA-OH as the compound, how does the pKi (Syntenin-1 [1]) read?
A: The pKi was 4.00.

Q: With H-RSGYEVM-OH as the compound, how does the pKi (Syntenin-1 [1]) read?
A: Its pKi is 4.62.

Q: What does the source list for CC[C@H](C)[C@@H](NC(=O)[C@H](CC(=O)O)NC(=O)[C@@H](NC(=O)[C@@H](NC(=O)[C@H](Cc1c[nH]c2ccccc12)NC(=O)[C@H](Cc1cnc[nH]1)NC(=O)[C@H](CO)NC(=O)[C@H](CCCNC(=N)N)NC(=O)[C@H](CCCNC(=N)N)NC(=O)[C@H](CCCNC(=N)N)NC(=O)[C@H](CCC(N)=O)NC(=O)[C@H](CCCNC(=N)N)NC(=O)[C@H](CCCNC(=N)N)NC(=O)[C@H](CCCCN)NC(=O)[C@H](CCCCN)NC(=O)[C@H](CCCNC(=N)N)NC(=O)CNC(=O)[C@H](Cc1ccc(O)cc1)NC(C)=O)C(C)(C)C)C1CCCCC1)C(=O)O?
A: inhibition [2]: Dose-dependent effect; pKi (Syntenin-1 [1]): 6.60

Q: With H-SHWTIDI-OH as the compound, how does the half-life at 200 µM [3] read?
A: Its half-life at 200 µM is 0.142 h.

Q: What about the pKi (Syntenin-1 [1]) of the same compound?
A: The pKi was 5.70.

Q: What about the half-life [4] of the same compound?
A: Its half-life is > 1 h.

Q: With CC(C)NCC(O)COc1cccc2ccccc12 (stereo not drawn) [PROPRANOLOL] as the compound, how does the half-life [4] read?
A: Its half-life is 0.583 h.

Q: With H-SKGETAV-OH as the compound, how does the pKi (Syntenin-1 [1]) read?
A: The pKi was 5.00.

Q: For CC[C@H](C)[C@@H](NC(=O)[C@H](CC(=O)O)NC(=O)[C@@H](NC(=O)[C@@H](NC(=O)[C@H](Cc1c[nH]c2ccccc12)NC(=O)[C@H](Cc1cnc[nH]1)NC(=O)[C@H](CO)NC(=O)[C@H](CCCNC(=N)N)NC(=O)[C@H](CCCNC(=N)N)NC(=O)[C@H](CCCNC(=N)N)NC(=O)[C@H](CCCNC(=N)N)NC(=O)[C@H](CCCNC(=N)N)NC(=O)[C@H](CCCNC(=N)N)NC(=O)[C@H](CCCNC(=N)N)NC(=O)[C@H](CCCNC(=N)N)NC(=O)[C@H](CCCNC(=N)N)NC(C)=O)C(C)(C)C)C1CCCCC1)C(=O)O, which inhibition [2] is on record?
A: Its inhibition is “Dose-dependent effect”.

Q: What about the pKi (Syntenin-1 [1]) of the same compound?
A: Its pKi is 6.60.

Q: With CC[C@H](C)[C@H](NC(=O)[C@H](CC(=O)O)NC(=O)[C@@H](NC(=O)[C@@H](NC(=O)[C@H](Cc1c[nH]c2ccccc12)NC(=O)[C@H](Cc1cnc[nH]1)NC(=O)[C@H](CO)NC(=O)CNC(=O)[C@H](CC(N)=O)NC(=O)[C@H](CC(N)=O)NC(=O)c1ccc(C(=O)[O-])c(-c2c3ccc(=[N+](C)C)cc-3oc3cc(N(C)C)ccc23)c1)C(C)(C)C)C1CCCCC1)C(=O)O (X1-NNGSHW[Tle][Chg]DI-OH) as the compound, how does the pKi (Syntenin-1 [1]) read?
A: Its pKi is 7.52.

Q: With CC[C@H](C)[C@H](NC(=O)[C@H](CC(=O)O)NC(=O)[C@@H](NC(=O)[C@@H](NC(=O)[C@H](Cc1c[nH]c2ccccc12)NC(=O)[C@H](Cc1cnc[nH]1)NC(=O)[C@H](CO)NC(=O)COCCOCCNC(=O)CCCC[C@@H]1SC[C@@H]2NC(=O)N[C@@H]21)C(C)(C)C)C1CCCCC1)C(=O)O ({Biotin-AEEA}-SHW[Tle][Chg]DI-OH) as the compound, how does the K [5] read?
A: The K was 3.1 10^5/M/s.

Q: And the pKi (Syntenin-1 [6])?
A: Its pKi is 6.77.

Q: What about the Flu intensity [7] of the same compound?
A: The Flu intensity was 0.96.

Q: And the K [8]?
A: Its K is 0.05 s⁻¹.

Q: What about the Activity [9] of the same compound?
A: The Activity was “inactive”.

Q: And the pKi (Syntenin-1 [1])?
A: The pKi was 6.72.

Q: What about the Ratio (Homo sapiens) of the same compound?
A: Its Ratio is 440.

Q: With H-TLEDSVF-OH as the compound, how does the pKi (Syntenin-1 [1]) read?
A: Its pKi is 4.36.

Q: With CC[C@H](C)[C@H](NC(=O)[C@H](CC(=O)O)NC(=O)[C@@H](NC(=O)[C@@H](NC(=O)[C@H](Cc1c[nH]c2ccccc12)NC(=O)[C@H](Cc1c[nH]cn1)NC(=O)[C@H](CO)NC(=O)[C@H](CCCNC(=N)N)NC(=O)[C@H](CCCNC(=N)N)NC(=O)[C@H](CCCNC(=N)N)NC(=O)[C@H](CCC(N)=O)NC(=O)[C@H](CCCNC(=N)N)NC(=O)[C@H](CCCNC(=N)N)NC(=O)[C@H](CCCCN)NC(=O)[C@H](CCCCN)NC(=O)[C@H](CCCNC(=N)N)NC(=O)CNC(=O)[C@H](Cc1ccc(O)cc1)NC(C)=O)C(C)(C)C)C1CCCCC1)C(=O)O as the compound, how does the half-life [4] read?
A: Its half-life is > 1 h.

Q: With CC[C@H](C)[C@H](NC(=O)[C@H](Cc1cnc[nH]1)NC(=O)[C@@H](NC(=O)[C@@H](NC(=O)[C@@H](N)CC(=O)O)C1CCCCC1)C(C)(C)C)C(=O)N[C@@H](Cc1c[nH]c2ccccc12)C(=O)N[C@@H](CO)C(=O)O (H-D[Chg][Tle]HIWS-OH) as the compound, how does the pKi (Syntenin-1 [1]) read?
A: Its pKi is < 3.30.

Q: Which results are given for CC[C@H](C)[C@H](NC(=O)[C@H](CC(=O)O)NC(=O)CNC(=O)[C@H](Cc1cnc[nH]1)NC(=O)[C@H](CS)NC(=O)[C@H](CCC(=O)O)NC(=O)[C@H](CC(C)C)NC(=O)[C@@H](NC(=O)[C@H](Cc1c[nH]c2ccccc12)NC(=O)[C@H](Cc1cnc[nH]1)NC(=O)[C@H](CO)NC(=O)[C@H](CCCNC(=N)N)NC(=O)[C@H](CCCNC(=N)N)NC(=O)[C@H](CCCCN)NC(=O)[C@H](CCCCN)NC(=O)[C@H](CCCNC(=N)N)NC(=O)CNC(=O)[C@H](CCCNC(=N)N)NC(=O)[C@H](CCCNC(=N)N)NC(=O)[C@H](CCCNC(=N)N)NC(=O)[C@H](CS)NC(=O)[C@H](C)N)[C@@H](C)O)C(=O)O (H-ACRRRGRKKRRSHWTLECHGDI-OH)?
A: Activity (HEK293): Toxic; Drug uptake [10]: Dose-dependent effect and Tde; Activity (GBM [11]): Dose-dependent effect; Activity (GBM [12]): Dose-dependent effect; Activity (A2058): Dose-dependent effect; MST (GBM [13]): 45.5 days; inhibition [2]: Dose-dependent effect; Activity (MCF7): inactive; inhibition [14]: Active; Activity (HT-29): inactive; Activity (Astrocyte): Toxic; half-life [4]: > 1 h

Q: Which results are given for CC[C@H](C)[C@@H](NC(=O)[C@H](CC(=O)O)NC(=O)[C@@H](NC(=O)[C@@H](NC(=O)[C@H](Cc1c[nH]c2ccccc12)NC(=O)[C@H](Cc1cnc[nH]1)NC(=O)[C@H](CO)NC(=O)[C@@H]1CCC(=O)NCCCC[C@H](NC(C)=O)C(=O)N[C@H](CCCNC(=N)N)C(=O)N[C@@H](CCCNC(=N)N)C(=O)N[C@H](CCCNC(=N)N)C(=O)NCC(=O)N[C@H](CCCNC(=N)N)C(=O)N[C@@H](CCCCN)C(=O)N[C@H](CCCCN)C(=O)N[C@@H](CCCNC(=N)N)C(=O)N[C@H](CCCNC(=N)N)C(=O)N1)C(C)(C)C)C1CCCCC1)C(=O)O?
A: half-life at 200 µM [3]: > 24 h; Activity (A2058): Dose-dependent effect; inhibition [2]: Dose-dependent effect; Activity (MCF7): inactive; pKi (Syntenin-1 [1]): 6.60; Activity (HT-29): inactive; half-life [4]: > 1 h

Q: With H-KDKEYYV-OH as the compound, how does the pKi (Syntenin-1 [1]) read?
A: The pKi was 3.96.

Q: With H-TTNEFYA-OH as the compound, how does the pKi (Syntenin-1 [1]) read?
A: Its pKi is 5.70.
